The values below come from patent US7157487B2, “Vla-4 inhibitors” (Daiichi Pharmaceutical Co., Ltd., priority 2000, dated 2007).

In series [1] the target is T1, integrins haα4 and β1 (VLA-4) expressed on CHO cells (Homo sapiens, UniProt P05556+P13612).
T1 construct: expressed in transfected cells; host or cells: CHO cells
The experiment in a line: In vitro Evaluation Test (1): binding of Eu3+-hVCAM-1 D1D7-IgG to CHO cells expressing integrins α4 and β1. The settings on record: inhibition of Eu3+-hVCAM-1 D1D7-IgG binding to CHO cells expressing α4β1; Ki calculated from IC50. In a few lines:
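CHO cells transduced with human α4 and β1 were grown for 2 days. They were incubated 1 h at room temperature with Eu3+-hVCAM-1 D1D7-IgG (diluted to 2 nM before addition) and compound, with or without 6% HSA, in HEPES pH 7.5 containing Ca2+, Mg2+ and 4 mM Mn2+. Time-resolved fluorescence gave IC50; Ki used a Scatchard-derived Kd (0.06–20 nM).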

Series [2] can be described thus: Evaluation of oral bioavailability by mouse bioassay. The format is in vivo. The settings on record: 10 mg/kg oral, female Balb/C mice, serum 15 minutes after administration, read-out: Blood level. How it is done: A test compound was suspended or dissolved in a proper administration medium to give a concentration of 1 mg/ml. To 7 to 9 week old female Balb/C mice, 10 mg/kg of the resulting suspension or solution was orally administered. Fifteen minutes after the administration, blood was collected from the postcava under anesthesia with ether and the serum was separated from it. The concentration of each test compound was determined by estimating the serum level from a calibration curve obtained with VCAM-1/VLA-4 inhibitory activity as an index or measuring the concentration by using LC/MS/MS.

T1 sequence (P13612 34-1032): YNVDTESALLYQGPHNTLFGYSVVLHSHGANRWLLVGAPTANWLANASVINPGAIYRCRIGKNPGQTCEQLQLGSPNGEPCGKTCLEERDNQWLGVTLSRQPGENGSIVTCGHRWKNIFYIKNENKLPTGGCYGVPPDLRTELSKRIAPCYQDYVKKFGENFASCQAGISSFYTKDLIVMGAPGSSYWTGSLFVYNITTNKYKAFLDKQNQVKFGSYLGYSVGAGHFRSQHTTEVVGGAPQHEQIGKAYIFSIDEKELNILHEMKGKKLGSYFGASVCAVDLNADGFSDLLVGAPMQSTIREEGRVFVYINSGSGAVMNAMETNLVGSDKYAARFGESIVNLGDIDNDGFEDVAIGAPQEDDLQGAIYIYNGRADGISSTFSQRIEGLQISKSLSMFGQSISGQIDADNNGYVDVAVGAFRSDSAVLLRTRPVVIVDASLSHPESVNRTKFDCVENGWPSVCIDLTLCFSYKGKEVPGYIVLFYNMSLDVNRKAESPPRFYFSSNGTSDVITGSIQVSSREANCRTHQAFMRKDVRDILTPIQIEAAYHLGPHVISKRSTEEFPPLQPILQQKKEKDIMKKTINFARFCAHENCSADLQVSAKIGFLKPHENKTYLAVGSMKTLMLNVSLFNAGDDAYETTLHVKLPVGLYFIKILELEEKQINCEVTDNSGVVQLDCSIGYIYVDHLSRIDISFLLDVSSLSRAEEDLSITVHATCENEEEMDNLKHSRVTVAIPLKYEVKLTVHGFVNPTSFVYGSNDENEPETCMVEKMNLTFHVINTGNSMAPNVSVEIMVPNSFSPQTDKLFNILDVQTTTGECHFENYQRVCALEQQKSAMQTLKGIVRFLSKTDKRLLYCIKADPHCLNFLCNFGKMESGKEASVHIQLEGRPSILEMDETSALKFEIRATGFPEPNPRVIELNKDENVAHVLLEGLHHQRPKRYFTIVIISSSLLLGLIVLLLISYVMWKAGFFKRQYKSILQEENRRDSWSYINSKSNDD
T1 sequence (P05556 21-798): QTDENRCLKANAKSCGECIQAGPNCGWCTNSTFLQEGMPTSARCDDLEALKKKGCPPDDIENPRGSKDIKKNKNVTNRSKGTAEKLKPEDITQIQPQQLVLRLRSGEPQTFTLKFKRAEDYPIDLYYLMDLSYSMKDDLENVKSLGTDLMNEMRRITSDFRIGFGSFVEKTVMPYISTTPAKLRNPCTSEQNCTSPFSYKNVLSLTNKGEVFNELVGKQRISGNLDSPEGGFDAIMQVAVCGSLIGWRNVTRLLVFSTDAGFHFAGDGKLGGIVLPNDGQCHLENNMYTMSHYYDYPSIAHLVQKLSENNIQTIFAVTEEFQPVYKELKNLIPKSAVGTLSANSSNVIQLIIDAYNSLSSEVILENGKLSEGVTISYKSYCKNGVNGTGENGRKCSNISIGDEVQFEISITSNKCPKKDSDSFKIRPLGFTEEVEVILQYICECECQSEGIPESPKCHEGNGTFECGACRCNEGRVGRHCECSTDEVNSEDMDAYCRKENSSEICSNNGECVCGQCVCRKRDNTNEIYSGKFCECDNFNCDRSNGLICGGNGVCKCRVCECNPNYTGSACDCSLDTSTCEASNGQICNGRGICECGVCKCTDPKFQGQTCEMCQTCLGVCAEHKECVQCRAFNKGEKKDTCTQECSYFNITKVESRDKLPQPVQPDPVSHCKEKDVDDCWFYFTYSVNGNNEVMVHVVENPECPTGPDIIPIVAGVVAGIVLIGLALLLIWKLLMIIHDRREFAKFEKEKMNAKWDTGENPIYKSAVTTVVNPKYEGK

On to `C=CCO[C@H]1C[C@@H](CO[C@H]2CC[C@H](C(=O)O)CC2)N(C(=O)Cc2cc(Cl)c(NC(=O)c3cn(C)c4ccccc34)cc2F)C1` [Example 117, trans-4-((4S)-Allyloxy-1-((5-chloro-2-fluoro-4-(1-methyl-3-indolylcarbonylamino)phenyl)acetyl)-(2S)-pyrrolidinylmethoxy)cyclohexanecarboxylic acid], for which the Ki (commonly a dissociation constant, usually derived from enzyme kinetics or from competition with a known ligand) in series [1] was 5.1 nM. Also, the concentration at 15 min in series [2] was found to be 2930 ng/mL.

In the case of `O=C(Nc1ccc(CC(=O)N2C[C@@H](F)C[C@H]2CO[C@H]2CC[C@H](C(=O)O)CC2)cc1Cl)N1CCc2ccc(F)cc21` [Example 92], in series [1], the Ki is 2.7 nM. Moreover, in series [2], the concentration at 15 min was determined as 1990 ng/mL.

Take `Cc1ccc(F)cc1Nc1nc2ccc(CC(=O)N3C[C@@H](F)C[C@H]3CO[C@H]3CC[C@H](C(=O)O)CC3)c(F)c2o1` [Example 44, trans-4-(1-((2-(5-Fluoro-2-methylphenylamino)-7-fluoro-6-benzoxazolyl)acetyl)-(4S)-fluoro-(2S)-pyrrolidinylmethoxy)cyclohexanecarboxylic acid]: the Ki in series [1] was 2 nM. In addition, the concentration at 15 min in series [2] is 912 ng/mL.

Turning to `C[C@H]1CC[C@@H](CO[C@H]2CC[C@H](C(=O)O)CC2)N1C(=O)Cc1cc(Cl)c(NC(=O)c2cn(C)c3ccccc23)cc1F` [Example 136, trans-4-(1-((5-chloro-2-fluoro-4-((1-methyl-3-indolyl)carbonylamino)phenyl)acetyl)-(5S)-methyl-(2S)-pyrrolidinylmethoxy)cyclohexanecarboxylic acid], in series [1], the Ki is 5.4 nM. Moreover, the concentration at 15 min in series [2] came to 2500 ng/mL.

In the case of `CO[C@H]1CCN(C(=O)Cc2cc(Cl)c(NC(=O)c3nn(C)c4ccccc34)cc2F)[C@@H]1CO[C@H]1CC[C@H](C(=O)O)CC1` [Example 169, trans-4-(1-((5-Chloro-2-fluoro-4-((1-methyl-3-indazolylcarbonyl)amino)phenyl)acetyl)-(3S)-methoxy-(2R)-pyrrolidinylmethoxy)cyclohexanecarboxylic acid], in series [1], the Ki was 16 nM. Moreover, the concentration at 15 min in series [2] is 21800 ng/mL.

Regarding `CS[C@H]1C[C@@H](CO[C@H]2CC[C@H](C(=O)O)CC2)N(C(=O)Cc2cc(Cl)c(NC(=O)c3cn(C)c4ccccc34)cc2F)C1` [Example 125, trans-4-(1-((5-Chloro-2-fluoro-4-((1-methyl-3-indolylcarbonyl)amino)phenyl)acetyl)-(4S)-methylthio-(2S)-pyrrolidinylmethoxy)cyclohexanecarboxylic acid], in series [1], the inhibition constant (Ki) was 6.5 nM. For the same compound, the concentration at 15 min in series [2] worked out at 2570 ng/mL.

Consider `CO[C@H]1C[C@@H](CO[C@H]2CC[C@H](C(=O)O)CC2)N(C(=O)Cc2cc(Cl)c(NC(=O)c3cn(C)c4ccccc34)cc2F)C1` [Example 116, trans-4-(1-((5-Chloro-2-fluoro-4-(1-methyl-3-indolylcarbonylamino)phenyl)acetyl)-(4S)-methoxy-(2S)-pyrrolidinylmethoxy)cyclohexanecarboxylic acid], for which, in series [1], the Ki is 2.5 nM. For the same compound, the concentration at 15 min in series [2] came out at 9400 ng/mL.

For `Cn1nc(C(=O)Nc2ccc(CC(=O)N3C[C@@H](F)C[C@H]3CO[C@H]3CC[C@H](C(=O)O)CC3)cc2Cl)c2ccccc21` [Example 89, trans-4-(1-((3-Chloro-4-((1-methyl-3-indazolylcarbonyl)amino)phenyl)acetyl)-(4S)-fluoro-(2S)-pyrrolidinylmethoxy)cyclohexanecarboxylic acid], in series [1], the Ki was 3.6 nM. Also, in series [2], the concentration at 15 min was 10900 ng/mL.

On to `COC[C@@H]1CC[C@@H](CO[C@H]2CC[C@H](C(=O)O)CC2)N1C(=O)Cc1cc(Cl)c(NC(=O)c2cn(C)c3ccccc23)cc1F` [Example 141, trans-4-((1-(5-Chloro-2-fluoro-4-((1-methyl-3-indolyl)carbonylamino)phenyl)acetyl)-(5S)-methoxymethyl-(2S)-pyrrolidinylmethoxy)cyclohexanecarboxylic acid], for which, in series [1], the Ki is 21 nM. In addition, the concentration at 15 min in series [2] was 8820 ng/mL.

Take `CC(C)[C@H]1CC[C@@H](CO[C@H]2CC[C@H](C(=O)O)CC2)N1C(=O)Cc1cc(Cl)c(NC(=O)c2cn(C)c3ccccc23)cc1F` [Example 173, trans-4-(1-((5-Chloro-2-fluoro-4-((1-methyl-3-indolylcarbonyl)amino)phenyl)acetyl)-(5R)-isopropyl-(2S)-pyrrolidinylmethoxy)cyclohexanecarboxylic acid]: the Ki in series [1] was 10 nM. The concentration at 15 min in series [2] is 3470 ng/mL.

For `COC[C@H]1CC[C@@H](CO[C@H]2CC[C@@H](C(=O)O)CC2)N1C(=O)Cc1ccc2nc(Nc3cc(F)ccc3C)oc2c1F` [Example 165, trans-4-(1-((2-(5-Fluoro-2-methylphenylamino)-7-fluoro-6-benzoxazolyl)acetyl)-(5R)-methoxymethyl-(2S)-pyrrolidinylmethoxy)cyclohexanecarboxylic acid], the inhibition constant Ki in series [1] was 2.9 nM. Further, in series [2], the concentration at 15 min worked out at 816 ng/mL.

As to `O=C(Nc1cc(F)c(CC(=O)N2C[C@@H](F)C[C@H]2CO[C@H]2CC[C@H](C(=O)O)CC2)cc1Cl)c1n[nH]c2ccccc12` [Example 172, trans-4-(1-((5-Chloro-2-fluoro-4-(3-indazolylcarbonylamino)phenyl)acetyl)-(4S)-fluoro-(2S)-pyrrolidinylmethoxy)cyclohexanecarboxylic acid], the Ki in series [1] was 6.8 nM. Also, the concentration at 15 min in series [2] turned out to be 848 ng/mL.

On to `CCCO[C@H]1C[C@@H](CO[C@H]2CC[C@H](C(=O)O)CC2)N(C(=O)Cc2cc(Cl)c(NC(=O)c3cn(C)c4ccccc34)cc2F)C1` [Example 118, trans-4-(1-((5-Chloro-2-fluoro-4-(1-methyl-3-indolylcarbonylamino)phenyl)acetyl)-(4S)-propoxy-(2S)-pyrrolidinylmethoxy)cyclohexanecarboxylic acid], for which, in series [1], the Ki was 6.9 nM. Moreover, the concentration at 15 min in series [2] came to 5730 ng/mL.

Regarding `CO[C@H]1C[C@@H](CO[C@H]2CC[C@H](C(=O)O)CC2)N(C(=O)Cc2cc(Cl)c(NC(=O)c3nsc4ccccc34)cc2F)C1` [Example 171, trans-4-(1-(5-Chloro-2-fluoro-4-((3-benzo(d)isothiazolylcarbonyl)amino)phenylacetyl)-(4S)-methoxy-(2S)-pyrrolidinylmethoxy)cyclohexanecarboxylic acid], in series [1], the Ki is 5 nM. Moreover, the concentration at 15 min in series [2] worked out at 2730 ng/mL.

As to `O=C(Nc1cc(F)c(CC(=O)N2C[C@@H](F)C[C@H]2CO[C@H]2CC[C@H](C(=O)O)CC2)cc1Cl)N1CCc2ccccc21` [Example 91, trans-4-(1-(5-Chloro-2-fluoro-4-(1-(indolinyl)carbonylamino)phenylacetyl)-(4S)-fluoro-(2S)-pyrrolidinylmethoxy)cyclohexanecarboxylic acid], the Ki in series [1] is 2 nM. Besides, in series [2], the concentration at 15 min was 2960 ng/mL.

On to `O=C(O)C1CCC(OC[C@@H]2C[C@H](F)CN2C(=O)Cc2ccc3nc(Nc4ccccc4Cl)oc3c2F)CC1` (stereo partly drawn) [Example 37, 4-(1-(2-(2-Chlorophenyl)amino-7-fluoro-6-benzoxazolylacetyl)-(4S)-fluoro-(2S)-pyrrolidinylmethoxy)cyclohexanecarboxylic acid], for which the Ki in series [1] is 6.9 nM. Further, in series [2], the concentration at 15 min turned out to be 3690 ng/mL.
